Experimental data reported in patent publication US9783586B2, “Inhibitors of the linear ubiquitin chain assembly complex (LUBAC) and related methods” (The United States of America, as represented by the …, priority 2013, dated 2017).
Positions of bridges follow the written chain, without caps; N, C: chain ends. Non-standard residues stand in square brackets, D forms with d. Residues, ends and D or L forms follow the SMILES beside them. S5 = C=CCCC[C@](C)(N)C(=O)O; βAla = NCCC(=O)O

Molecular target: T1, RBCK1/RNF31 interaction (Homo sapiens, UniProt Q9BYM8)
T1 construct: expressed in transfected cells; host or cells: HEK-293
T1 sequence (Q9BYM8 1-510): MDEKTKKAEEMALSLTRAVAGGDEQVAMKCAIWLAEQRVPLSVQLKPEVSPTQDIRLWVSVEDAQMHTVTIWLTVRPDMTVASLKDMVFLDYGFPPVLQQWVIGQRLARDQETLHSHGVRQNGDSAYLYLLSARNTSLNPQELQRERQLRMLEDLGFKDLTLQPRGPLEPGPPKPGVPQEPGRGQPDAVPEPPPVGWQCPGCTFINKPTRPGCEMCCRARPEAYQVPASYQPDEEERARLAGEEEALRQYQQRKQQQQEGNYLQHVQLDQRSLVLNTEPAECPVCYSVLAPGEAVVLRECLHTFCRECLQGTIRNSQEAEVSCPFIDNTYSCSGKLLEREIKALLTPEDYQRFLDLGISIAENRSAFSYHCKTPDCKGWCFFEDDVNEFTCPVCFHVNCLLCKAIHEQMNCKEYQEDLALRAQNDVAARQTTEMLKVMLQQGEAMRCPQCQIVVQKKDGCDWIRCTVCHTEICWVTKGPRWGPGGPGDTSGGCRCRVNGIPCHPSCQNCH
Experiment: RBCK1/RNF31 co-immunoprecipitation (LUBAC complex formation) in co-transfected HEK-293 cells
Assay type: cell-based
Details: Example 9, tested as described in Example 7 (present tense)

SMILES | Interference with LUBAC function
CC(=O)NCCC(=O)N[C@@H](CO)C(=O)N[C@@H](CCCNC(=N)N)C(=O)N[C@@]1(C)CCCC=CCCC[C@@](C)(C(=O)N[C@@H](CCC(N)=O)C(=O)N[C@@H](CCCNC(=N)N)C(=O)N[C@@H](CCC(N)=O)C(=O)N[C@@H](CCCNC(=N)N)C(=O)N[C@@H](CC(C)C)C(=O)N[C@@H](CCC(=O)O)C(=O)NCC(=O)N[C@@H](Cc2ccccc2)C(=O)N[C@@H](CCCNC(=N)N)C(=O)N[C@@H](CCC(N)=O)C(=O)N[C@@H](CCCNC(=N)N)C(=O)N[C@@]2(C)CCCC=CCCC[C@@](C)(C(N)=O)NC(=O)[C@H](CO)NC(=O)[C@H](CC(=O)O)NC(=O)[C@H](Cc3c[nH]c4ccccc34)NC2=O)NC(=O)[C@H](CCC(=O)O)NC(=O)[C@H]([C@@H](C)O)NC(=O)[C@H](CC(C)C)NC1=O [RNF31-NC P2G, Ac-βAla Ser Arg Xaa Leu Thr Glu Xaa Gln Arg Gln Arg Leu Glu Gly Phe Arg Gln Arg Xaa Trp Asp Ser Xaa-NH2] (Ac-[βAla]SR[S5]LTE[S5]QRQRLEGFRQR[S5]WDS[S5]-NH2; staple 4-8, 20-24) | interfere with LUBAC function
CC(=O)NCCC(=O)N[C@@H](CO)C(=O)N[C@@H](CCCNC(=N)N)C(=O)N[C@@]1(C)CCCC=CCCC[C@@](C)(C(=O)N[C@@H](CCC(N)=O)C(=O)N[C@@H](CCCNC(=N)N)C(=O)N[C@@H](CCC(N)=O)C(=O)N[C@@H](CCCNC(=N)N)C(=O)N[C@@H](CC(C)C)C(=O)N[C@@H](CCC(=O)O)C(=O)N2CCC[C@H]2C(=O)N[C@@H](Cc2ccccc2)C(=O)N[C@@H](CS)C(=O)N[C@@H](CCC(N)=O)C(=O)N[C@@H](CCCNC(=N)N)C(=O)N[C@@]2(C)CCCC=CCCC[C@@](C)(C(N)=O)NC(=O)[C@H](CO)NC(=O)[C@H](CC(=O)O)NC(=O)[C@H](Cc3c[nH]c4ccccc34)NC2=O)NC(=O)[C@H](CCC(=O)O)NC(=O)[C@H]([C@@H](C)O)NC(=O)[C@H](CC(C)C)NC1=O [RNF31-NC R2C, Ac-βAla Ser Arg Xaa Leu Thr Glu Xaa Gln Arg Gln Arg Leu Glu Pro Phe Cys Gln Arg Xaa Trp Asp Ser Xaa-NH2] (Ac-[βAla]SR[S5]LTE[S5]QRQRLEPFCQR[S5]WDS[S5]-NH2; staple 4-8, 20-24) | interfere with LUBAC function
CC(=O)NCCC(=O)N[C@@H](CO)C(=O)N[C@@H](CCCNC(=N)N)C(=O)N[C@@]1(C)CCCC=CCCC[C@@](C)(C(=O)N[C@@H](CCC(N)=O)C(=O)N[C@@H](CCCNC(=N)N)C(=O)N[C@@H](CCC(N)=O)C(=O)N[C@@H](CCCNC(=N)N)C(=O)N[C@@H](CC(C)C)C(=O)N[C@@H](CCC(=O)O)C(=O)N2CCC[C@H]2C(=O)N[C@@H](Cc2ccccc2)C(=O)N[C@@H](CS)C(=O)N[C@@H](CC(C)C)C(=O)N[C@@H](CCCNC(=N)N)C(=O)N[C@@]2(C)CCCC=CCCC[C@@](C)(C(N)=O)NC(=O)[C@H](CO)NC(=O)[C@H](CC(=O)O)NC(=O)[C@H](Cc3c[nH]c4ccccc34)NC2=O)NC(=O)[C@H](CCC(=O)O)NC(=O)[C@H]([C@@H](C)O)NC(=O)[C@H](CC(C)C)NC1=O [RNF31-NC R2CL, Ac-βAla Ser Arg Xaa Leu Thr Glu Xaa Gln Arg Gln Arg Leu Glu Pro Phe Cys Leu Arg Xaa Trp Asp Ser Xaa-NH2] (Ac-[βAla]SR[S5]LTE[S5]QRQRLEPFCLR[S5]WDS[S5]-NH2; staple 4-8, 20-24) | interfere with LUBAC function
